Measurements taken from patent publication US4916152A, “Pyrrolidine derivatives as antiasthmatics” (Fujisawa Pharmaceutical Co., Ltd., priority 1987, dated 1990).
pIC50: −log10 of the molar value. Counter-ions that a name gives are not always drawn.

Legend:
[1] = system: 9,11-azo PGH2 induced aggregation of rabbit platelet; assay: Effect on 9,11-azo PGH2 induced aggregation of rabbit platelet in vitro; format: cell-based; conditions: Oryctolagus cuniculus; rabbit platelet rich plasma, in vitro, 9,11-azo PGH2 (final 1.0 μM), 37° C.; read-out: IC50 (Inhibition concentration of platelet aggregation by 50%)
Description: (§1) In the following tests, the used 9, 11-azo PGH2 and 9,11-methanoepoxy PGH2 (U46619) are characterized pharmacologically as TXA2 mimetic agents and widely used for evaluating TXA2 antagonism of test compounds (for example, vide The Journal of Pharmacology and Experimental Therapeutics Vol. 234, pp 435-441).
Test 1 (Effect on 9,11-azo PGH2 induced aggregation of rabbit platelet in vitro) (a) Test method
In the in vitro experiments, the blood was collected from the carotid artery of rabbits into plastic vessels containing 0.1 volume of 3.8% aqueous sodium citrate. Platelet rich plasma (PRP) was prepared by centrifugation at 150 g for 15 minutes. Platelet aggregation was investigated using the turbidometric method with an aggregometer (NKK HEMATRACER 1). To the 225 μl of PRP, 25 μl of test compound solution was added, and then stirred at 1000 rpm for 2 minutes at 37° C. To the solution, 5 μl of 9,11-azo PGH2 (final 1.0 μM) was added as an aggregating inducer. IC50 (Inhibition concentration of platelet aggregation by 50%) were graphically determined.

[2] = system: 9,11-methanoepoxy PGH2 induced platelet aggregation; assay: Effect on 9,11-methanoepoxy PGH2 (U46619) induced platelet aggregation ex vivo; format: in vivo, male Hartley strain guinea-pigs; conditions: Cavia porcellus, guinea-pig, oral administration 0.032 mg/kg, 1 hour before blood collection, U46619 0.5 μM
Description: as §1
Test 2. (Effect on 9,11-methanoepoxy PGH2 induced platelet aggregation ex vivo)
In the ex vivo experiments, male Hartley strain guinea-pigs weighing about 300 g were used after overnight fasting. Animals received an oral administration of test compound (0.032 mg/kg) or vehicle 1 hour before the blood collection from abdominal artery PRP was prepared as described above, and platelet aggregation was induced by adding 5 μl of 9,11-methanoepoxy PGH2 (U46619, 0.5 μM) to 250 μl of PRP.

In the case of O=C(O)CCCC=C[C@@H]1C[C@@H](NS(=O)(=O)c2ccc(Cl)cc2)CN1S(=O)(=O)c1ccc(Cl)cc1 [Test compound (1), Sodium salt of (2S,4R)-2-[(E and Z)-5-carboxy-1-pentenyl]-1-(4-chlorophenylsulfonyl)-4-(4-chlorophenylsulfonylamino)pyrrolidine], the pIC50 [1] was 7.07 and the inhibition at 0.032 mg/kg [2] was 94.2%.
O=C(O)CCC/C=C\[C@@H]1C[C@@H](NS(=O)(=O)c2ccc(Cl)cc2)CN1S(=O)(=O)c1ccc(Cl)cc1 [Test compound (2), (2S,4R)-2-[(Z)-5-Carboxy-1-pentenyl]-1-(4-chlorophenylsulfonyl)-4-(4-chlorophenylsulfonylamino)pyrrolidine] gave a pIC50 [1] of 7.26 and an inhibition at 0.032 mg/kg [2] of 100%.
